In ChEMBL document CHEMBL6109144, “Discovery of New Difluorocyclobutyl Derivatives as Effective Glucagon-Like Peptide-1 Receptor Agonists with Reduced hERG Inhibitory Activities” (J Med Chem, 2025):
The source made the active and inactive calls. The rule behind the calls is not given here.

What was measured:
in vivo = details: Sprague-Dawley, rat, po, 5 mg/kg
[1] = Cmax in Sprague-Dawley rat at 5 mg/kg, po measured up to 24 hrs by LC-MS/MS analysis; assay type: ADME, organism-based; details: in vivo
[2] = Half life in Sprague-Dawley rat at 5 mg/kg, po measured up to 24 hrs by LC-MS/MS analysis; assay type: ADME, organism-based; details: in vivo
hERG (KCNH2) [3] = molecular target: T1, hERG (KCNH2) (Homo sapiens, UniProt Q12809); assay: Inhibition of hERG at 1 uM at -80 mV holding potential by whole-cell patch clamp analysis relative to control; assay type: toxicity
T1 sequence (Q12809 whole entry): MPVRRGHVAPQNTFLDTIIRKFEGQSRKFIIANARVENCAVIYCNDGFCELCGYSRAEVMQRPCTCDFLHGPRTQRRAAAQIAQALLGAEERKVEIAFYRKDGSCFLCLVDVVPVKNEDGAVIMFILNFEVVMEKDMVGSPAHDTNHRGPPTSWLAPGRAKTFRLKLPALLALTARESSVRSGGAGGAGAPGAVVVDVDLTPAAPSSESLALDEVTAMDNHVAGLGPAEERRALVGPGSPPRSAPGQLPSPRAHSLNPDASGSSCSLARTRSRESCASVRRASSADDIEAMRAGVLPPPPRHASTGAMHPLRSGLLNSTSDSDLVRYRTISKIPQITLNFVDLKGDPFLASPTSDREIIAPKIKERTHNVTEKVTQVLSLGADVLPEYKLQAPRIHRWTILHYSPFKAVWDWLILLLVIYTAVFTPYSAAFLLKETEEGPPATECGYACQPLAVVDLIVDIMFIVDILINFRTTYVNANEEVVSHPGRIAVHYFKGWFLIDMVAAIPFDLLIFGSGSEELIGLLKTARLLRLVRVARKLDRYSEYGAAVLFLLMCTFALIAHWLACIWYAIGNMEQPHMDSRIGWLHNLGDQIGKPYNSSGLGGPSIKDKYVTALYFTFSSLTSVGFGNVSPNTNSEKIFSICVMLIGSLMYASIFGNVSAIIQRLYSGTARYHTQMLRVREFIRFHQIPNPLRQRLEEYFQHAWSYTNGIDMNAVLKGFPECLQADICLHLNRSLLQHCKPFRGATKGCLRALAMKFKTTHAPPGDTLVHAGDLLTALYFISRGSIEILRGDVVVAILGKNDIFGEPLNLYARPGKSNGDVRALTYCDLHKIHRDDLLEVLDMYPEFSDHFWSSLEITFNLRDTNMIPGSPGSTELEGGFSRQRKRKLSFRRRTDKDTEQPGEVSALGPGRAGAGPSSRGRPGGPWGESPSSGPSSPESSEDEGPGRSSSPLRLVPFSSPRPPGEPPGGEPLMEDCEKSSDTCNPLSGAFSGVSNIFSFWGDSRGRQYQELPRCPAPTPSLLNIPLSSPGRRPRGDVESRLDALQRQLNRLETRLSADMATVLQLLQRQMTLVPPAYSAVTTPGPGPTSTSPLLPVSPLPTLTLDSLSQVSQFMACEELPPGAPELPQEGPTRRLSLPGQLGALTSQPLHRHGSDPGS

[4] = molecular target: T2, Glucagon-like peptide 1 receptor (Homo sapiens, UniProt P43220); assay: Agonist activity at N-terminal hemagglutinin-tagged human GLP-1R expressed in CHO cells co-transfected with pcDNA3.0 assessed as increase in intracellular cAMP accumulation incubated for 30 mins by microplate reader analysis; assay type: functional, cell-based
T2 sequence (P43220 whole entry): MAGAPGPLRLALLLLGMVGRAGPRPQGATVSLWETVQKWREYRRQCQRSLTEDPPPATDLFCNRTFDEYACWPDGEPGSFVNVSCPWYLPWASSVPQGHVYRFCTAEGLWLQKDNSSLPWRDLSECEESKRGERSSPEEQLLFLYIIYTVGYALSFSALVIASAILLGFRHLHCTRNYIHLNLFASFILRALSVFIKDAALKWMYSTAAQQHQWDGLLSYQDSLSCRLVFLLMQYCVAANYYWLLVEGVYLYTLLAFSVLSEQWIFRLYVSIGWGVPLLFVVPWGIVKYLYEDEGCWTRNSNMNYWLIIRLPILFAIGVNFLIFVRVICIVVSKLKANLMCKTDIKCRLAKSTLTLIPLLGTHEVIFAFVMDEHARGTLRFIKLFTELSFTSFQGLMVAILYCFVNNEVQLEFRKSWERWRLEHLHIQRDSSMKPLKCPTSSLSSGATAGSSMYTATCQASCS

[5] = Observed apparent oral clearance in Sprague-Dawley rat at 5 mg/kg, po measured up to 24 hrs by LC-MS/MS analysis; assay type: ADME, organism-based; details: in vivo
[6] = AUC (0 to infinity) in Sprague-Dawley rat at 5 mg/kg, po measured up to 24 hrs by LC-MS/MS analysis; assay type: ADME, organism-based; details: in vivo
[7] = Fraction of the dose absorbed in Sprague-Dawley rat at 5 mg/kg, po measured up to 24 hrs by LC-MS/MS analysis; assay type: ADME, organism-based; details: in vivo, read-out: Fabs
hERG (KCNH2) [8] = molecular target: T1, hERG (KCNH2); assay: Inhibition of hERG at 10 uM at -80 mV holding potential by whole-cell patch clamp analysis relative to control; assay type: toxicity
[9] = molecular target: T2, Glucagon-like peptide 1 receptor; assay: Binding affinity to GLP-1R (unknown origin) at 5000 nM measured at 30 to 120 mins by HTRF analysis relative to control; details: filed as agonist, time 30-120 min
[10] = molecular target: T2, Glucagon-like peptide 1 receptor; assay: Binding affinity to GLP-1R (unknown origin) at 500 nM measured at 30 to 120 mins by HTRF analysis relative to control; details: time 30-120 min
Rattus norvegicus [11] = assay: Antidiabetic activity in human GLP-1R knockin Sprague-Dawley rat model assessed as increase in rate of insulin secretion at 10 mg/kg, po pretreated with compound for 15 mins by IPGTT analysis; assay type: functional, organism-based
Rattus norvegicus [12] = assay: Antidiabetic activity in human GLP-1R knockin Sprague-Dawley rat model assessed as increase in rate of glucose disappearance at 10 mg/kg, po pretreated with compound for 15 mins by IPGTT analysis; assay type: functional, organism-based
Rattus norvegicus [13] = assay: Antidiabetic activity in human GLP-1R knockin Sprague-Dawley rat model assessed as increase in rate of insulin secretion at 1 to 10 mg/kg, po pretreated with compound for 15 mins by IPGTT analysis; assay type: functional, organism-based; details: dose 1-10 mg/kg
Rattus norvegicus [14] = assay: Antidiabetic activity in human GLP-1R knockin Sprague-Dawley rat model assessed as increase in rate of glucose disappearance at 1 to 10 mg/kg, po pretreated with compound for 15 mins by IPGTT analysis; assay type: functional, organism-based; details: dose 1-10 mg/kg
[15] = molecular target: T3, Glucagon-like peptide 2 receptor (Homo sapiens, UniProt O95838); assay: Agonist activity at N-terminal HA-tagged human GLP-2R expressed in CHO cells co-transfected with pcDNA3.0 assessed as effect on cAMP accumulation incubated for 30 mins by microplate reader analysis; assay type: functional, cell-based
T3 sequence (O95838 whole entry): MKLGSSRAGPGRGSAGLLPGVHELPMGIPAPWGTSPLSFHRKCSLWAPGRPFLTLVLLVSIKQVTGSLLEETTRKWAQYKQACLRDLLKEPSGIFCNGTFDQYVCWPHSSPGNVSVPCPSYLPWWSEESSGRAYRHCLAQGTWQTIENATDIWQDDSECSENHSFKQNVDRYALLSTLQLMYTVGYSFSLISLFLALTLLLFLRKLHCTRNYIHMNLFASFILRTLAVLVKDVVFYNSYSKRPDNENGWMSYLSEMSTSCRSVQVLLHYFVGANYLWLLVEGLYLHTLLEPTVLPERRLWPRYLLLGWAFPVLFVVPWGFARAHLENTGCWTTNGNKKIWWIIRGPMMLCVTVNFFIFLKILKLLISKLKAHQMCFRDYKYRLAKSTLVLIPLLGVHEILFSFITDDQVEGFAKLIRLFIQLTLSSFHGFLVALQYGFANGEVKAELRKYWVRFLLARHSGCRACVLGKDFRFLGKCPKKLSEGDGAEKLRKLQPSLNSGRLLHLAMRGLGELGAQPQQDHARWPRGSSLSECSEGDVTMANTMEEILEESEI

[16] = molecular target: T4, Gastric inhibitory polypeptide receptor (Homo sapiens, UniProt P48546); assay: Agonist activity at N-terminal HA-tagged human GIPR expressed in CHO cells co-transfected with pcDNA3.0 assessed as effect on cAMP accumulation incubated for 30 mins by microplate reader analysis; assay type: functional, cell-based
T4 sequence (P48546 whole entry): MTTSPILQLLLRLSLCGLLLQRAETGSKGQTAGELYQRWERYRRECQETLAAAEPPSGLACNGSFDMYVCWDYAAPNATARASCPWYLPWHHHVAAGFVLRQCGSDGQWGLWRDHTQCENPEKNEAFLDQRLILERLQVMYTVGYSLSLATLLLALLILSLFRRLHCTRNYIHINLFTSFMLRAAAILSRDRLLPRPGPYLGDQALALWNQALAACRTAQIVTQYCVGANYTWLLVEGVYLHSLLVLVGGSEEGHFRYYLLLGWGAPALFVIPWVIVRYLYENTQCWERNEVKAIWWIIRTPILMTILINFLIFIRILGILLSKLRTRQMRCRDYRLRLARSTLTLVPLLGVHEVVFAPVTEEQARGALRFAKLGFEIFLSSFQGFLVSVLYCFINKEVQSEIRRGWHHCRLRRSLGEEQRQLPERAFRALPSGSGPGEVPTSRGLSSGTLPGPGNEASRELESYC

[17] = Induction of insulin release in human EndoC-betaH5 cells incubated for 1 hr by ELISA analysis; assay type: functional, cell-based; details: EndoC-betaH5, 1 h
[18] = molecular target: T2, Glucagon-like peptide 1 receptor; assay: Agonist activity at human GLP-1R expressed in HEK293 cells assessed as beta-arrestin2 recruitment incubated for 5 mins by bioluminescence based Envision multiplate reader analysis; assay type: functional, cell-based
Rattus norvegicus [19] = assay: Antidiabetic activity in human GLP-1R knockin po dosed Sprague-Dawley rat model assessed as increase in glucose-simulated insulin secretion pretreated with compound for 15 mins followed by D-glucose administration and measured after 30 mins by ELISA analysis; assay type: functional, organism-based; details: dose 1-10 mg/kg, time 45.0 min
Glucagon receptor = Glucagon receptor (Homo sapiens, UniProt P47871); assay: Agonist activity at N-terminal HA-tagged human GCGR expressed in CHO cells co-transfected with pcDNA3.0 assessed as effect on cAMP accumulation incubated for 30 mins by microplate reader analysis; assay type: functional, cell-based
Chain of Glucagon receptor (P47871 whole entry): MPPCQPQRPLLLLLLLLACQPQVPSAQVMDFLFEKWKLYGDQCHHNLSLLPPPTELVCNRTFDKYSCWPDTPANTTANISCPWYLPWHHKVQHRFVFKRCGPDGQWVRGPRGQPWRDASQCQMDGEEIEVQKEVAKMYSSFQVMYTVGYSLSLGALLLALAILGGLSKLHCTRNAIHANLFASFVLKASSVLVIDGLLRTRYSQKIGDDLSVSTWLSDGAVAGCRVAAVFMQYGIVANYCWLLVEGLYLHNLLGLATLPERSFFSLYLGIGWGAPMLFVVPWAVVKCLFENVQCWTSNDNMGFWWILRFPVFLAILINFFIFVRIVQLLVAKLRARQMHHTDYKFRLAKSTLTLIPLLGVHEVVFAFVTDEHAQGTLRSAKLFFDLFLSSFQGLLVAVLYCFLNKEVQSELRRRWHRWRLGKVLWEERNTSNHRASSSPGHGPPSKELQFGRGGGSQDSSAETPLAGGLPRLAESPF

[20] = molecular target: T2, Glucagon-like peptide 1 receptor; assay: Agonist activity at human GLP-1R expressed in HEK293 cells assessed as beta-arrestin1 recruitment incubated for 5 mins by bioluminescence based Envision multiplate reader analysis; assay type: functional, cell-based

| SMILES | Tmax at 24 h (in vivo) | Cmax [1] | half-life [2] | EC50 [4] | CL/F [5] | AUC(0-inf) [6] | Fa at 24 h [7] | Activity [9] | Activity ([10]; filed as agonist) | inhibition at 1 µM (hERG (KCNH2) [3]) | inhibition at 10 µM (hERG (KCNH2) [8]) | also measured |
| --- | --- | --- | --- | --- | --- | --- | --- | --- | --- | --- | --- | --- |
| O=C(O)c1ccc2nc(Cc3ccc(-c4cccc(OCc5ccc(C6CC(F)(F)C6)cc5F)n4)cc3F)n(C[C@@H]3CCO3)c2c1 | 79.8 min | 33.6 ng/mL | 131 min | 0.031 nM | 963 mL/min/kg | 91 ng·h/mL | 2.86% | – | – | 0.58% | 4.76% | – |
| O=C(O)c1cc(F)c2nc(CN3CC=C(c4cccc(OCc5ccc(C6CC(F)(F)C6)cc5F)n4)CC3)n(C[C@@H]3CCO3)c2c1 | – | – | – | 0.016 nM | – | – | – | 82.2% | 45.4% | – | 58.7% | – |
| O=C(O)c1ccc2nc(CN3CC=C(c4cccc(OCc5ccc(C6CC(F)(F)C6)cc5F)n4)CC3)n(C[C@@H]3CCO3)c2c1 | 25.2 min | 22 ng/mL | 401 min | 0.059 nM | 1230 mL/min/kg | 67 ng·h/mL | 3.63% | 88.9% | 57.9% | 4.53% | 74% | – |
| O=C(O)c1ccc2nc(Cc3ccc(-c4cccc(OCc5ccc(C6CC(F)(F)C6)cc5F)n4)cc3)n(C[C@@H]3CCO3)c2c1 | – | – | – | 0.093 nM | – | – | – | 73.5% | – | – | – | Activity [10]: 29.5% |
| O=C(O)c1ccc2nc(CN3CCN(c4cccc(OCc5ccc(C6CC(F)(F)C6)cc5F)n4)CC3)n(C[C@@H]3CCO3)c2c1 | – | – | – | 0.081 nM | – | – | – | 66.6% | – | – | – | Activity [10]: 19.9% |
| COc1cc(C(=O)O)cc2c1nc(CN1CC=C(c3cccc(OCc4ccc(C5CC(F)(F)C5)cc4F)n3)CC1)n2C[C@@H]1CCO1 | 55.2 min | 31.5 ng/mL | 145 min | 0.012 nM | 1040 mL/min/kg | 84 ng·h/mL | 2.43% | 92.3% | 69.4% | – | 68.3% | – |
| O=C(O)c1ccc2nc(CN3CC=C(c4cccc(OCc5ccc(C6CC(F)(F)C6)cc5F)n4)CC3)n(C[C@@H]3CCO3)c2n1 | 160 min | 256 ng/mL | 199 min | 0.048 nM | 65.8 mL/min/kg | 1380 ng·h/mL | 54.2% | 71.2% | – | 0.6% | 37.6% | Activity (Rattus norvegicus [13]): Active; Activity (Rattus norvegicus [14]): Active; EC50 [15]: > 20 µM; EC50 [16]: > 20 µM; Activity [10]: 35.5%; EC50 [17]: 22.7 nM; EC50 [18]: 864 nM; Activity (Rattus norvegicus [19]): Dose-dependent-effect; EC50 (Glucagon receptor): > 20 µM; EC50 [20]: 2020 nM |

Now from value to compound, other results behind:

| Tmax at 24 h (in vivo) | Cmax [1] | half-life [2] | EC50 [4] | CL/F [5] | AUC(0-inf) [6] | Fa at 24 h [7] | Activity [9] | Activity ([10]; filed as agonist) | SMILES | inhibition at 1 µM (hERG (KCNH2) [3]) | inhibition at 10 µM (hERG (KCNH2) [8]) | also measured |
| --- | --- | --- | --- | --- | --- | --- | --- | --- | --- | --- | --- | --- |
| 11.4 min | 38.3 ng/mL | 177 min | 0.085 nM | 2210 mL/min/kg | 31.4 ng·h/mL | 2.2% | – | – | O=C(O)c1ccc2nc(CN3CCC(Oc4cccc(COc5ccc6cnn(CC(F)F)c6c5F)n4)CC3)n(C[C@@H]3CCO3)c2n1 | 5.1% | 14.2% | – |
| 40.2 min | 24.1 ng/mL | 630 min | 0.047 nM | 458 mL/min/kg | 182 ng·h/mL | 28.5% | – | – | O=C(O)c1ccc2nc(CN3CCC(Oc4cccc(Cc5ccc(Cl)c6c5OCC6)n4)CC3)n(C[C@@H]3CCO3)c2n1 | 0.7% | 5.1% | – |
| 21.6 min | 133 ng/mL | 256 min | 0.085 nM | 601 mL/min/kg | 149 ng·h/mL | 10.8% | – | – | O=C(O)c1ccc2nc(CN3CCC(Oc4cccc(COc5ccc6cnn(CC(F)F)c6c5)n4)CC3)n(C[C@@H]3CCO3)c2n1 | -0.55% | 2.69% | – |
| 79.8 min | 130 ng/mL | 217 min | – | 135 mL/min/kg | 655 ng·h/mL | 35.1% | 81.9% | 44.9% | N#Cc1ccc(COc2cccc(C3CCN(Cc4nc5ccc(C(=O)O)cc5n4C[C@@H]4CCO4)CC3)n2)c(F)c1 [DANUGLIPRON] | 8.4% | 69.7% | Activity (Rattus norvegicus [11]): Active; Activity (Rattus norvegicus [12]): Active |
